Laboratory results published in PubChem BioAssay (NCI).
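In this assay, cells in 96-well plates receive the compound at five concentrations for 48 hours. Endpoints are linearly interpolated between the surrounding concentrations. Here, GI50 denotes the concentration required for 50% inhibition of growth. TGI is the concentration that stops growth completely.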

Tests used:
Assay in all cases: DTP human tumour cell line panel, 48 h
SN12C renal = system: SN12C renal
COLO 205 colon = system: COLO 205 colon
A498 renal = system: A498 renal
MOLT-4 leukemia = system: MOLT-4 leukemia
U251 CNS = system: U251 CNS
M14 melanoma = system: M14 melanoma
MDA-MB-231 breast = system: MDA-MB-231 breast
HCT-15 colon = system: HCT-15 colon
SK-MEL-2 melanoma = system: SK-MEL-2 melanoma
TK-10 renal = system: TK-10 renal
SF-295 CNS = system: SF-295 CNS
ACHN renal = system: ACHN renal
UACC-257 melanoma = system: UACC-257 melanoma
NCI/ADR-RES ovarian = system: NCI/ADR-RES ovarian
MALME-3M melanoma = system: MALME-3M melanoma
HL-60(TB) leukemia = system: HL-60(TB) leukemia
HS 578T breast = system: HS 578T breast
BT-549 breast = system: BT-549 breast
OVCAR-8 ovarian = system: OVCAR-8 ovarian
LOX IMVI melanoma = system: LOX IMVI melanoma
HCC-2998 colon = system: HCC-2998 colon
SK-MEL-5 melanoma = system: SK-MEL-5 melanoma
SF-539 CNS = system: SF-539 CNS
SNB-75 CNS = system: SNB-75 CNS
SK-OV-3 ovarian = system: SK-OV-3 ovarian
786-0 renal = system: 786-0 renal
CAKI-1 renal = system: CAKI-1 renal
SNB-19 CNS = system: SNB-19 CNS
RXF 393 renal = system: RXF 393 renal
OVCAR-4 ovarian = system: OVCAR-4 ovarian
MDA-MB-468 breast = system: MDA-MB-468 breast
NCI-H23 lung = system: NCI-H23 lung
KM12 colon = system: KM12 colon
SF-268 CNS = system: SF-268 CNS
NCI-H226 lung = system: NCI-H226 lung
DU-145 prostate = system: DU-145 prostate
UO-31 renal = system: UO-31 renal
PC-3 prostate = system: PC-3 prostate
HOP-62 NSCLC = system: HOP-62 NSCLC
RPMI-8226 leukemia = system: RPMI-8226 leukemia
SW-620 colon = system: SW-620 colon
EKVX NSCLC = system: EKVX NSCLC
UACC-62 melanoma = system: UACC-62 melanoma
NCI-H460 lung = system: NCI-H460 lung
HCT-116 colon = system: HCT-116 colon
HOP-92 NSCLC = system: HOP-92 NSCLC
OVCAR-5 ovarian = system: OVCAR-5 ovarian
MCF7 breast = system: MCF7 breast
SR leukemia = system: SR leukemia
NCI-H522 lung = system: NCI-H522 lung
K-562 leukemia = system: K-562 leukemia
T-47D breast = system: T-47D breast
SK-MEL-28 melanoma = system: SK-MEL-28 melanoma
IGROV1 ovarian = system: IGROV1 ovarian
CCRF-CEM leukemia = system: CCRF-CEM leukemia
HT29 colon = system: HT29 colon
A549 NSCLC = system: A549 NSCLC
MDA-MB-435 = system: MDA-MB-435
OVCAR-3 ovarian = system: OVCAR-3 ovarian

## N#Cc1ccc(/C=N/NC(=O)c2[nH]c3ccc(Br)cc3c2-c2ccccc2)o1
SN12C renal
  GI50: 0.389 µM
  TGI: 12.6 µM
COLO 205 colon
  GI50: 0.198 µM
  TGI: 0.371 µM
A498 renal
  GI50: 15.6 µM
  TGI: 42.3 µM
MOLT-4 leukemia
  GI50: 0.352 µM
  TGI: 32.7 µM
U251 CNS
  GI50: 0.33 µM
  TGI: 12.3 µM
M14 melanoma
  GI50: 0.324 µM
  TGI: 22.7 µM
MDA-MB-231 breast
  GI50: 0.246 µM
  TGI: 0.655 µM
HCT-15 colon
  GI50: 0.333 µM
  TGI: 13.7 µM
SK-MEL-2 melanoma
  GI50: 0.294 µM
  TGI: 13.5 µM
TK-10 renal
  GI50: 7.32 µM
  TGI: 26.9 µM
SF-295 CNS
  GI50: 0.321 µM
  TGI: 13.3 µM
ACHN renal
  GI50: 0.42 µM
  TGI: 13.4 µM
UACC-257 melanoma
  GI50: 1.19 µM
  TGI: 19.7 µM
NCI/ADR-RES ovarian
  GI50: 0.136 µM
  TGI: 0.408 µM
MALME-3M melanoma
  GI50: 0.434 µM
  TGI: 22.2 µM
HL-60(TB) leukemia
  GI50: 0.196 µM
  TGI: 2.78 µM
HS 578T breast
  GI50: 0.313 µM
  TGI: 20.1 µM
BT-549 breast
  GI50: 0.243 µM
  TGI: 3.22 µM
OVCAR-8 ovarian
  GI50: 0.226 µM
  TGI: 0.624 µM
LOX IMVI melanoma
  GI50: 0.124 µM
  TGI: 11.6 µM
HCC-2998 colon
  GI50: 0.278 µM
  TGI: 2.62 µM
SK-MEL-5 melanoma
  GI50: 0.272 µM
  TGI: 0.77 µM
SF-539 CNS
  GI50: 0.212 µM
  TGI: 0.527 µM
SNB-75 CNS
  GI50: 0.369 µM
  TGI: 14.6 µM
SK-OV-3 ovarian
  GI50: 0.513 µM
  TGI: 22.5 µM
786-0 renal
  GI50: 0.308 µM
  TGI: 10.1 µM
CAKI-1 renal
  GI50: 0.427 µM
  TGI: 16.2 µM
SNB-19 CNS
  GI50: 0.394 µM
  TGI: 17 µM
RXF 393 renal
  GI50: 0.486 µM
  TGI: 14.7 µM
OVCAR-4 ovarian
  GI50: 1.1 µM
  TGI: 25.3 µM
MDA-MB-468 breast
  GI50: 0.318 µM
  TGI: 14.1 µM
NCI-H23 lung
  GI50: 0.338 µM
  TGI: 14 µM
KM12 colon
  GI50: 0.315 µM
  TGI: 11.3 µM
SF-268 CNS
  GI50: 0.611 µM
  TGI: 20.3 µM
NCI-H226 lung
  GI50: 1.11 µM
  TGI: 27.5 µM
DU-145 prostate
  GI50: 0.379 µM
  TGI: 14.8 µM
UO-31 renal
  GI50: 0.454 µM
  TGI: 15.4 µM
PC-3 prostate
  GI50: 0.482 µM
  TGI: 19.7 µM
HOP-62 NSCLC
  GI50: 0.35 µM
  TGI: 13.5 µM
RPMI-8226 leukemia
  GI50: 0.369 µM
  TGI: 27.9 µM
SW-620 colon
  GI50: 0.421 µM
  TGI: 20.1 µM
EKVX NSCLC
  GI50: 0.496 µM
  TGI: 27.3 µM
UACC-62 melanoma
  GI50: 0.392 µM
  TGI: 17.9 µM
NCI-H460 lung
  GI50: 0.347 µM
  TGI: 10.7 µM
HCT-116 colon
  GI50: 0.198 µM
  TGI: 11.7 µM
HOP-92 NSCLC
  GI50: 2.12 µM
  TGI: 18.2 µM
OVCAR-5 ovarian
  GI50: 0.406 µM
  TGI: 21.1 µM
MCF7 breast
  GI50: 0.306 µM
  TGI: 16.7 µM
SR leukemia
  GI50: 0.152 µM
NCI-H522 lung
  GI50: 0.0914 µM
  TGI: 0.34 µM
K-562 leukemia
  GI50: 0.128 µM
  TGI: 15 µM
T-47D breast
  GI50: 4.66 µM
  TGI: 32.9 µM
SK-MEL-28 melanoma
  GI50: 0.806 µM
  TGI: 21.1 µM
IGROV1 ovarian
  GI50: 0.404 µM
  TGI: 16.6 µM
CCRF-CEM leukemia
  GI50: 0.295 µM
  TGI: > 54.5 µM
HT29 colon
  GI50: 0.204 µM
  TGI: 2.52 µM
A549 NSCLC
  GI50: 0.383 µM
  TGI: 14 µM

## O=C(CSc1nc2ccccc2c(=O)n1-c1ccc(Cl)cc1)Nc1ccc(-c2nc3ccc([N+](=O)[O-])cc3[nH]2)cc1
SN12C renal
  GI50: 1.58 µM
  TGI: 4.21 µM
COLO 205 colon
  GI50: 2.34 µM
  TGI: 6.07 µM
A498 renal
  GI50: 3.23 µM
  TGI: 12.9 µM
MOLT-4 leukemia
  GI50: 3.21 µM
  TGI: > 100 µM
U251 CNS
  GI50: 1.59 µM
  TGI: 3.58 µM
M14 melanoma
  GI50: 2.32 µM
  TGI: 8.05 µM
MDA-MB-231 breast
  GI50: 1.82 µM
  TGI: 4.62 µM
HCT-15 colon
  GI50: 2.77 µM
  TGI: > 100 µM
SK-MEL-2 melanoma
  GI50: 1.95 µM
  TGI: 5.31 µM
TK-10 renal
  GI50: 3.61 µM
  TGI: 20.5 µM
SF-295 CNS
  GI50: 1.73 µM
  TGI: 4.56 µM
ACHN renal
  GI50: 3.1 µM
  TGI: 21.2 µM
UACC-257 melanoma
  GI50: 1.69 µM
  TGI: 4.95 µM
NCI/ADR-RES ovarian
  GI50: 5.29 µM
  TGI: > 100 µM
MALME-3M melanoma
  GI50: 2.18 µM
  TGI: 7.44 µM
HL-60(TB) leukemia
  GI50: 28.1 µM
  TGI: > 100 µM
HS 578T breast
  GI50: 1.6 µM
  TGI: 4.57 µM
BT-549 breast
  GI50: 1.84 µM
  TGI: 6.61 µM
OVCAR-8 ovarian
  GI50: 1.08 µM
  TGI: 2.75 µM
LOX IMVI melanoma
  GI50: 1.44 µM
  TGI: 3.04 µM
HCC-2998 colon
  GI50: 2.95 µM
  TGI: 15.2 µM
SK-MEL-5 melanoma
  GI50: 3.01 µM
  TGI: 11.7 µM
SF-539 CNS
  GI50: 1.9 µM
  TGI: 4.06 µM
SNB-75 CNS
  GI50: 2.03 µM
  TGI: 8.21 µM
SK-OV-3 ovarian
  GI50: 2.82 µM
  TGI: 32.7 µM
786-0 renal
  GI50: 2.91 µM
  TGI: 8.4 µM
CAKI-1 renal
  GI50: 12 µM
  TGI: > 100 µM
SNB-19 CNS
  GI50: 2.33 µM
  TGI: 8.77 µM
RXF 393 renal
  GI50: 1.5 µM
  TGI: 3.69 µM
OVCAR-4 ovarian
  GI50: 1.59 µM
  TGI: 5.11 µM
MDA-MB-468 breast
  GI50: 1.4 µM
  TGI: 3.2 µM
NCI-H23 lung
  GI50: 1.8 µM
  TGI: 5.36 µM
KM12 colon
  GI50: 10.2 µM
  TGI: > 100 µM
SF-268 CNS
  GI50: 4.62 µM
  TGI: > 100 µM
NCI-H226 lung
  GI50: 1.77 µM
  TGI: 4.04 µM
DU-145 prostate
  GI50: 3.79 µM
  TGI: > 100 µM
MDA-MB-435
  GI50: 2.98 µM
  TGI: 13.1 µM
UO-31 renal
  GI50: 30 µM
  TGI: > 100 µM
PC-3 prostate
  GI50: 1.79 µM
  TGI: 7.01 µM
HOP-62 NSCLC
  GI50: 1.26 µM
  TGI: 3 µM
RPMI-8226 leukemia
  GI50: 4.4 µM
  TGI: > 100 µM
SW-620 colon
  GI50: 3.52 µM
  TGI: 74.1 µM
EKVX NSCLC
  GI50: 1.91 µM
  TGI: 5.7 µM
UACC-62 melanoma
  GI50: 1.76 µM
  TGI: 4.78 µM
NCI-H460 lung
  GI50: 1.56 µM
  TGI: 3.9 µM
HCT-116 colon
  GI50: 2.9 µM
  TGI: > 100 µM
HOP-92 NSCLC
  GI50: 1.75 µM
  TGI: 6.07 µM
OVCAR-5 ovarian
  GI50: 2.65 µM
  TGI: 20.5 µM
MCF7 breast
  GI50: 1.18 µM
  TGI: 5.09 µM
SR leukemia
  GI50: 2.16 µM
  TGI: 24.1 µM
NCI-H522 lung
  GI50: 1.82 µM
  TGI: 4.65 µM
K-562 leukemia
  GI50: 2.63 µM
  TGI: > 100 µM
T-47D breast
  GI50: 1.41 µM
  TGI: 3.56 µM
SK-MEL-28 melanoma
  GI50: 1.72 µM
  TGI: 3.87 µM
IGROV1 ovarian
  GI50: 1.87 µM
  TGI: 5 µM
OVCAR-3 ovarian
  GI50: 2.53 µM
  TGI: 7.43 µM
CCRF-CEM leukemia
  GI50: 13.5 µM
  TGI: > 100 µM
HT29 colon
  GI50: 2.83 µM
  TGI: 11.4 µM
A549 NSCLC
  GI50: 1.88 µM
  TGI: 6.81 µM
